Results: PMC12121777 (PLOS One, 2025)
In brackets after ≈: the same amount, converted by molar mass. Read-outs that look alike come from different tables or passages of the source.

Columns and labels:
[1] = tested on: polyresistant Mtb strains; conditions: polyresistant Mtb strains (e.g., INH, STR, EMB); cited from earlier work
Mtb Praha 1 = assay: microbe, parasite or virus in culture; type: cell-based; conditions: Mycobacterium tuberculosis, read-out: MIC Mtb Praha 1
Mtb Praha 4 = assay: microbe, parasite or virus in culture; type: cell-based; conditions: Mycobacterium tuberculosis, read-out: MIC Mtb Praha 4
Mtb Praha 131 = assay: microbe, parasite or virus in culture; type: cell-based; conditions: Mycobacterium tuberculosis, read-out: MIC Mtb Praha 131
Mtb 234/2005 = assay: microbe, parasite or virus in culture; type: cell-based; conditions: Mycobacterium tuberculosis, read-out: MIC Mtb 234/2005
Mtb 9449/2007 = assay: microbe, parasite or virus in culture; type: cell-based; conditions: Mycobacterium tuberculosis, read-out: MIC Mtb 9449/2007
Mtb 7357/1998 = assay: microbe, parasite or virus in culture; type: cell-based; conditions: Mycobacterium tuberculosis, read-out: MIC Mtb 7357/1998
Mtb 8666/2010 = assay: microbe, parasite or virus in culture; type: cell-based; conditions: Mycobacterium tuberculosis, read-out: MIC Mtb 8666/2010

Structure (SMILES) | inhibitory concentration (MIC) [1] | MIC (Mtb Praha 1; PRAHA1, 336 h) | MIC (Mtb Praha 1; PRAHA1, 504 h) | MIC (Mtb Praha 4; PRAHA4, 336 h) | MIC (Mtb Praha 4; PRAHA4, 504 h) | MIC (Mtb Praha 131; PRAHA131, 336 h) | MIC (Mtb Praha 131; PRAHA131, 504 h) | MIC (Mtb 234/2005; 234/2005, 336 h) | MIC (Mtb 234/2005; 234/2005, 504 h) | MIC (Mtb 9449/2007; 9449/2007, 336 h) | MIC (Mtb 9449/2007; 9449/2007, 504 h) | MIC (Mtb 7357/1998; 7357/1998, 336 h) | MIC (Mtb 7357/1998; 7357/1998, 504 h) | MIC (Mtb 8666/2010; 8666/2010, 336 h) | MIC (Mtb 8666/2010; 8666/2010, 504 h)
CCCCCCCCCCCCCCCCCc1nnc(-c2ccncc2)o1 [III] | ≥ 2.59 µM |  |  |  |  |  |  |  |  |  |  |  |  |  | 
CCCCCCCCCCCCNc1nnc(-c2cc([N+](=O)[O-])cc([N+](=O)[O-])c2)s1 [Compound 5s, 5-(3,5-Dinitrophenyl)-N-dodecyl-1,3,4-thiadiazol-2-amine] |  | 1 µM (≈ 0.436 µg/mL) | 1 µM (≈ 0.436 µg/mL) | 1 µM (≈ 0.436 µg/mL) | 1 µM (≈ 0.436 µg/mL) | 1 µM (≈ 0.436 µg/mL) | 1 µM (≈ 0.436 µg/mL) | 0.5 µM (≈ 0.218 µg/mL) | 1 µM (≈ 0.436 µg/mL) | 1 µM (≈ 0.436 µg/mL) | 2 µM (≈ 0.871 µg/mL) | 0.5 µM (≈ 0.218 µg/mL) | 1 µM (≈ 0.436 µg/mL) | 0.5 µM (≈ 0.218 µg/mL) | 1 µM (≈ 0.436 µg/mL)
O=[N+]([O-])c1cc(-c2nnc(NCc3ccc(Cl)cc3Cl)o2)cc([N+](=O)[O-])c1 [Compound 7d, N-(2,4-Dichlorobenzyl)-5-(3,5-dinitrophenyl)-1,3,4-oxadiazol-2-amine] |  | 0.125 µM (≈ 0.0513 µg/mL) | 0.125 µM (≈ 0.0513 µg/mL) | 0.06 µM (≈ 0.0246 µg/mL) | 0.125 µM (≈ 0.0513 µg/mL) | 0.125 µM (≈ 0.0513 µg/mL) | 0.125 µM (≈ 0.0513 µg/mL) | 0.06 µM (≈ 0.0246 µg/mL) | 0.125 µM (≈ 0.0513 µg/mL) | 0.06 µM (≈ 0.0246 µg/mL) | 0.125 µM (≈ 0.0513 µg/mL) | 0.125 µM (≈ 0.0513 µg/mL) | 0.125 µM (≈ 0.0513 µg/mL) | 0.06 µM (≈ 0.0246 µg/mL) | 0.125 µM (≈ 0.0513 µg/mL)
CCCCCCCCCCCNc1nnc(-c2cc([N+](=O)[O-])cc([N+](=O)[O-])c2)o1 [Compound 5k, 5-(3,5-Dinitrophenyl)-N-undecyl-1,3,4-oxadiazol-2-amine] |  | 0.25 µM (≈ 0.101 µg/mL) | 0.5 µM (≈ 0.203 µg/mL) | 0.25 µM (≈ 0.101 µg/mL) | 0.5 µM (≈ 0.203 µg/mL) | 0.25 µM (≈ 0.101 µg/mL) | 0.5 µM (≈ 0.203 µg/mL) | 0.25 µM (≈ 0.101 µg/mL) | 0.5 µM (≈ 0.203 µg/mL) | 0.25 µM (≈ 0.101 µg/mL) | 0.5 µM (≈ 0.203 µg/mL) | 0.25 µM (≈ 0.101 µg/mL) | 0.5 µM (≈ 0.203 µg/mL) | 0.25 µM (≈ 0.101 µg/mL) | 0.5 µM (≈ 0.203 µg/mL)
CCCCCCCNc1nnc(-c2cc([N+](=O)[O-])cc([N+](=O)[O-])c2)o1 [Compound 5g, 5-(3,5-Dinitrophenyl)-N-heptyl-1,3,4-oxadiazol-2-amine] |  | 0.06 µM (≈ 0.021 µg/mL) | 0.06 µM (≈ 0.021 µg/mL) | 0.06 µM (≈ 0.021 µg/mL) | 0.06 µM (≈ 0.021 µg/mL) | 0.06 µM (≈ 0.021 µg/mL) | 0.06 µM (≈ 0.021 µg/mL) | 0.06 µM (≈ 0.021 µg/mL) | 0.06 µM (≈ 0.021 µg/mL) | ≤ 0.03 µM | 0.06 µM (≈ 0.021 µg/mL) | 0.06 µM (≈ 0.021 µg/mL) | 0.06 µM (≈ 0.021 µg/mL) | ≤ 0.03 µM | 0.06 µM (≈ 0.021 µg/mL)
COc1ccc(CNc2nnc(-c3cc([N+](=O)[O-])cc([N+](=O)[O-])c3)o2)cc1 [Compound 7b, 5-(3,5-Dinitrophenyl)-N-(4-methoxybenzyl)-1,3,4-oxadiazol-2-amine] |  | ≤ 0.03 µM | ≤ 0.03 µM | ≤ 0.03 µM | ≤ 0.03 µM | ≤ 0.03 µM | ≤ 0.03 µM | ≤ 0.03 µM | 0.06 µM (≈ 0.0223 µg/mL) | ≤ 0.03 µM | ≤ 0.03 µM | ≤ 0.03 µM | ≤ 0.03 µM | ≤ 0.03 µM | ≤ 0.03 µM
CCCCCCCCCCCCCCCc1nnc(-c2ccncc2)o1 [II] | ≥ 2.59 µM |  |  |  |  |  |  |  |  |  |  |  |  |  | 
